Values after ≈ are worked out from the molar mass of the structure shown.
Legend:
[1] = Apparent permeability across apical to basolateral side of MDCK cells; type: ADME, cell-based, Canis lupus familiaris; conditions: dog
[2] = Kinetic solubility of compound in PBS at pH 7.4; type: physicochemical; conditions: read-out: Kinetic_solubility
[3] = AUC (0 to infinity) in Sprague-Dawley rat at 5 mg/kg, po; type: ADME, organism-based; set-up: time infinity, dose 5 mg/kg, route oral; conditions: plasma
[4] = Plasma concentration in C57BL6 mouse at 100 mg/kg, po after 4 hr; type: ADME, organism-based; set-up: dose 100 mg/kg, route oral
[5] = Half life in Sprague-Dawley rat at 5 mg/kg, po; type: ADME, organism-based; set-up: dose 5 mg/kg, route oral; conditions: in vivo
[6] = Plasma concentration in C57BL6 mouse at 100 mg/kg, po after 1 hr; type: ADME, organism-based; set-up: dose 100 mg/kg, route oral
in vivo = conditions: BALB/c, mouse, plasma, po, 100 mg/kg
[7] = Cmax in Sprague-Dawley rat at 5 mg/kg, po; type: ADME, organism-based; set-up: dose 5 mg/kg, route oral; conditions: in vivo
[8] = Oral bioavailability Sprague-Dawley rat at 5 mg/kg; type: ADME, organism-based; conditions: in vivo
[9] = Drug metabolism in mouse liver microsome assessed as compound oxidation after 30 mins; type: ADME; conditions: liver microsomes, read-out: Drug metabolism
[10] = Lipophilicity of compound, Log D; type: physicochemical; conditions: octanol/water

Papp A→B [1] [×10⁻⁶ cm/s]	concentration at 4 h [4] [µM]	concentration at 1 h [6] [µM]	SMILES	also measured
10	–	–	CNC(=O)c1nc(-c2ccc(Cl)c(NS(=O)(=O)c3cccc(Cl)c3)c2)cnc1N	–
55	119	333	CNC(=O)c1nc(-c2ccc(Cl)c(S(=O)(=O)Nc3cccc(F)c3F)c2)cnc1N	solubility kinetic [2]: 176 µM (≈ 79.9 µg/mL); AUC(0-inf) [3]: 449 µM·h; half-life [5]: 4.44 h; concentration at 4 h (in vivo): 43.1 µM; Cmax [7]: 42.5 µM; bioavailability [8]: 76.7%
–	0.1	0.7	CC(C)c1ccc(-c2nccnc2N2CCN(S(=O)(=O)c3cccc(-c4cnc(N)nc4)c3)CC2)cc1	metabolised at 0.5 h [9]: 79%
–	–	–	CS(=O)(=O)N1CCN(Cc2cc3nc(-c4cccc5[nH]ncc45)nc(N4CCOCC4)c3s2)CC1 [PICTILISIB]	concentration at 4 h (in vivo): 5.3 µM
10	–	–	CNC(=O)c1nc(-c2cccc(NS(=O)(=O)c3ccccc3)c2)cnc1N	–
10	19.2	64.8	CNC(=O)c1nc(-c2ccc(Cl)c(S(=O)(=O)Nc3ccc(F)cc3Cl)c2)cnc1N	concentration at 4 h (in vivo): 20.3 µM
10	–	–	CNC(=O)c1nc(-c2ccc(F)c(S(=O)(=O)Nc3ccccc3)c2)cnc1N	–
10	–	–	CNC(=O)c1nc(-c2cccc(NS(=O)(=O)c3cccc(Cl)c3)c2)cnc1N	–
10	39.8	237	CNC(=O)c1nc(-c2ccc(Cl)c(S(=O)(=O)Nc3cccc(F)c3Cl)c2)cnc1N	–
10	0.09	0.7	CNC(=O)c1nc(-c2ccc(Cl)c(S(=O)(=O)Nc3cccc(OC)c3)c2)cnc1N	–
10	–	–	CNC(=O)c1nc(-c2ccc(Cl)c(S(=O)(=O)Nc3ccc(Cl)cc3)c2)cnc1N	–
10	–	–	Nc1ncc(-c2ccc(Cl)c(S(=O)(=O)Nc3cccc(F)c3F)c2)c(OCC(F)(F)F)n1	–
–	3.2	12.9	CC(C)c1ccc(-c2ncccc2N2CCN(S(=O)(=O)c3cccc(-c4cnc(N)nc4)c3)CC2)cc1	metabolised at 0.5 h [9]: 37%; solubility kinetic [2]: < 5 µM; AUC(0-inf) [3]: 0.9 µM·h; logD [10]: > 4; half-life [5]: 1.82 h; bioavailability [8]: 12.7%
10	0.4	0.6	CNC(=O)c1nc(-c2cccc(S(=O)(=O)Nc3cccc(Cl)c3)c2)cnc1N	–
10	–	–	CNC(=O)c1nc(-c2ccc(Cl)c(S(N)(=O)=O)c2)cnc1N	–
10	–	–	Nc1ncc(-c2ccc(Cl)c(S(=O)(=O)Nc3cccc(F)c3F)c2)cn1	–
10	–	–	CNC(=O)c1nc(-c2cnc(N)c(S(=O)(=O)Nc3ccccc3)c2)cnc1N	–
10	0.4	1.7	CNC(=O)c1nc(-c2ccc(Cl)c(S(=O)(=O)Nc3cccc(C(F)(F)F)c3)c2)cnc1N	–

Papp A→B [1] [×10⁻⁶ cm/s]	concentration at 4 h [4] [µM]	concentration at 1 h [6] [µM]	SMILES	also measured
10	8.6	21.3	CNC(=O)c1nc(-c2ccc(Cl)c(S(=O)(=O)Nc3ccc(Cl)cc3Cl)c2)cnc1N	concentration at 4 h (in vivo): 6.5 µM
10	9.6	59.1	CNC(=O)c1nc(-c2ccc(Cl)c(S(=O)(=O)Nc3ccccc3Cl)c2)cnc1N	solubility kinetic [2]: 24 µM (≈ 10.9 µg/mL)
–	–	–	CNC(=O)c1nc(-c2cccc(-c3nnn[nH]3)c2)cnc1N	solubility kinetic [2]: 424 µM (≈ 126 µg/mL); logD [10]: 0.47
10	–	–	COc1nc(N)ncc1-c1ccc(Cl)c(S(=O)(=O)Nc2cccc(F)c2F)c1	–
10	–	–	CNC(=O)c1nc(-c2ccc(Cl)c(S(=O)(=O)Nc3cccc(C)c3)c2)cnc1N	–
10	0.1	1.3	CNC(=O)c1nc(-c2ccc(Cl)c(S(=O)(=O)Nc3cccc(Cl)c3)c2)cnc1N	solubility kinetic [2]: < 1 µM
10	–	–	Nc1cnc(-c2ccc(Cl)c(S(=O)(=O)Nc3cccc(F)c3F)c2)cn1	–
10	–	–	CNC(=O)c1nc(-c2cccc(S(=O)(=O)Nc3ccccc3)c2)cnc1N	–
10	–	–	CNC(=O)c1nc(-c2cccc(S(=O)(=O)Nc3cccc(F)c3F)c2)cnc1N	–
10	–	–	CNC(=O)c1nc(-c2ccc(Cl)c(S(=O)(=O)Nc3ccccc3)c2)cnc1N	–
10	6.2	13.1	CNC(=O)c1nc(-c2ccc(Cl)c(S(=O)(=O)Nc3cccc(F)c3C)c2)cnc1N	AUC(0-inf) [3]: 26.8 µM·h; half-life [5]: 2.08 h; concentration at 4 h (in vivo): 9.2 µM; Cmax [7]: 9.1 µM; bioavailability [8]: 66.2%
10	–	–	CNC(=O)c1nc(-c2ccc(OC)c(S(=O)(=O)Nc3ccccc3)c2)cnc1N	–
–	0.1	0.5	COc1ccc(-c2cccc(S(=O)(=O)N3CCN(c4nccnc4-c4ccc(OC)cc4)CC3)c2)cc1	–
10	22.1	173	CNC(=O)c1nc(-c2ccc(Cl)c(S(=O)(=O)Nc3cccc(Cl)c3Cl)c2)cnc1N	–
10	–	–	CNC(=O)c1nc(-c2ccc(Cl)c(S(=O)(=O)NCC(F)(F)F)c2)cnc1N	solubility kinetic [2]: 211 µM (≈ 89.4 µg/mL)
10	1	1.6	CNC(=O)c1nc(-c2ccc(Cl)c(S(=O)(=O)Nc3cccc(F)c3)c2)cnc1N	–
10	–	–	CNC(=O)c1nc(-c2ccc(Cl)c(S(=O)(=O)NC)c2)cnc1N	–

From ChEMBL document CHEMBL2150966, “Discovery of a novel series of potent and orally bioavailable phosphoinositide 3-kinase γ inhibitors” (J Med Chem, 2012)
